Earlier results, collected in patent US20040223971A1, “Composition and uses of galectin antagonists” (GlycoGenesys, Inc., priority 2003, published 2004).

Assays:
[1] = system: BT549 cells; conditions: BT549 cells without detectable galectin-3
[2] = system: galectin-3 transfected BT549 cells

**Q.** Which results are given for O=c1c(-c2ccc(O)cc2)coc2cc(O)cc(O)c12 [genistein]?
**A.** apoptosis induction [1]: effectively induces apoptosis; cell cycle arrest / apoptosis [2]: cell cycle arrest at the G(2)/M phase takes place without apoptosis induction
